This is an account of results in patent US20170127693A1, “NUTRITIONAL COMPOSITIONS CONTAINING BUTYRATE AND USES THEREOF” (Mead Johnson Nutrition Company, priority 2015, published 2017).

This data set is classed as physicochemical. An excerpt: The dietary butyrate can comprise a phenylalanine amide derivative of butyric acid. In fact, use of a phenylalanine amide derivative of butyric acid provides for improved organoleptic and physicochemical characteristics as it is an odorless and colorless solid crystalline powder. Furthermore, the purification of phenylalanine amide derivatives of butyric acid may be particularly economical for purification in terms of the cost to purify versus the yield of compound ratio. Accordingly, in certain embodiments, the dietary butyrate may comprise an acid-stable butyrate amide with the amino acid phenylalanine, such as phenylalanine-butyramide (“FBA”). […] Moreover, the solubility of FBA in water is satisfactory as it produces clear solutions up to the concentration 0.1 M and suspensions at higher concentrations. Accordingly, FBA is a suitable form of dietary butyrate that may be incorporated into powdered nutritional compositions that are to be reconstituted with water or some other type of liquid.

phenylalanine-butyramide [FBA]: the “solubility in water (concentration up to which clear solutions are produced)” value was ≤ 100 mM; the “stability to acids and alkalis” value was “stable to acids and alkalis”.
